Measurements from PubChem BioAssay AID1963873 (Molecular Pharmacology Branch, DTP, NCI, 2024).

Test system: 276233-004-R-J1-PDC KRAS spheroids with HUVEC/MSC, viability
Experiment: Anticancer human tumor 276233-004-R-J1-PDC patient-derived colon adenocarcinoma cell line growth inhibition [KRAS2]
Details: for viability, T/C: stronger effect = lower value
Procedure, shortened: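 KRAS-mutant tumor cells were grown as spheroids with HUVEC endothelial cells and human MSCs as stroma. Targeted agents were tested alone and with KRAS pathway inhibitors. Doses started at or near clinical Cmax, or 10 microM, descending half-log.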

[1] = curve of first compound, second compound 0.1 µM
[2] = curve of first compound, second compound 0.316 µM
[3] = curve of first compound, second compound 1 µM
[4] = curve of first compound, second compound 3.16 µM
[5] = curve of first compound, second compound 10 µM
[6] = second compound 0.1 µM, first compound 0.0316 µM
[7] = second compound 0.1 µM, first compound 0.1 µM
[8] = second compound 0.1 µM, first compound 0.316 µM
[9] = second compound 0.1 µM, first compound 1 µM
[10] = second compound 0.1 µM, first compound 3.16 µM
[11] = second compound 0.1 µM, first compound 10 µM
[12] = second compound 0.316 µM, first compound 0.0316 µM
[13] = second compound 0.316 µM, first compound 0.1 µM
[14] = second compound 0.316 µM, first compound 0.316 µM
[15] = second compound 0.316 µM, first compound 1 µM
[16] = second compound 0.316 µM, first compound 3.16 µM
[17] = second compound 0.316 µM, first compound 10 µM
[18] = second compound 1 µM, first compound 0.0316 µM
[19] = second compound 1 µM, first compound 0.1 µM
[20] = second compound 1 µM, first compound 0.316 µM
[21] = second compound 1 µM, first compound 1 µM
[22] = second compound 1 µM, first compound 3.16 µM
[23] = second compound 1 µM, first compound 10 µM
[24] = second compound 3.16 µM, first compound 0.0316 µM
[25] = second compound 3.16 µM, first compound 0.1 µM
[26] = second compound 3.16 µM, first compound 0.316 µM
[27] = second compound 3.16 µM, first compound 1 µM
[28] = second compound 3.16 µM, first compound 3.16 µM
[29] = second compound 3.16 µM, first compound 10 µM
[30] = second compound 10 µM, first compound 0.0316 µM
[31] = second compound 10 µM, first compound 0.1 µM
[32] = second compound 10 µM, first compound 0.316 µM
[33] = second compound 10 µM, first compound 1 µM
[34] = second compound 10 µM, first compound 3.16 µM
[35] = second compound 10 µM, first compound 10 µM
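Further: cells exposed to agents for seven days before viability read.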
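Wherever viability, T/C is given: 100% = DMSO vehicle control wells and lower values mean fewer viable cells.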

| Compound | IC50 [1] [nM] | IC50 [2] [nM] | IC50 [3] [nM] | IC50 [4] [nM] | IC50 [5] [nM] | viability, T/C [6] [%] | viability, T/C [7] [%] | viability, T/C [8] [%] | viability, T/C [9] [%] | viability, T/C [12] [%] | viability, T/C [13] [%] | viability, T/C [14] [%] | viability, T/C [15] [%] | viability, T/C [18] [%] | viability, T/C [19] [%] | viability, T/C [20] [%] | viability, T/C [21] [%] | viability, T/C [24] [%] | viability, T/C [25] [%] | viability, T/C [26] [%] | also measured |
| --- | --- | --- | --- | --- | --- | --- | --- | --- | --- | --- | --- | --- | --- | --- | --- | --- | --- | --- | --- | --- | --- |
| Cn1nccc1Nc1nccc(-c2cc3c(s2)C(C)(C)N(CCN2CCOCC2)C3=O)n1 + C=CC(=O)N1CCN(c2nc(=O)n(-c3c(C)ccnc3C(C)C)c3nc(-c4c(O)cccc4F)c(F)cc23)C(C)C1 | > 10000 | > 10000 | > 10000 | > 10000 | > 10000 | 106 | 100 | 83.1 | 71.6 | 114 | 112 | 101 | 99.3 | 132 | 108 | 83.1 | 93.1 | 97.1 | 122 | 93.1 | viability, T/C [10]: 69.9%; viability, T/C [11]: 60.4%; viability, T/C [16]: 66.2%; viability, T/C [17]: 66.4%; viability, T/C [22]: 67.6%; viability, T/C [23]: 69.2%; viability, T/C [27]: 98.5%; viability, T/C [28]: 72.2%; viability, T/C [29]: 86.5%; viability, T/C [30]: 89.5%; viability, T/C [31]: 85.7%; viability, T/C [32]: 85.2%; viability, T/C [33]: 72.6%; viability, T/C [34]: 82.2%; viability, T/C [35]: 105% |
| COc1cc2nccc(Oc3ccc(NC(=O)C4(C(=O)Nc5ccc(F)cc5)CC4)cc3)c2cc1OC |  |  |  |  |  |  |  |  |  |  |  |  |  |  |  |  |  |  |  |  | viability, T/C (compound 0.0316 µM): 93.2% [middle of 5 runs]; viability, T/C (compound 0.1 µM): 89.3% [middle of 5 runs]; viability, T/C (compound 3.16 µM): 93.1% [middle of 5 runs]; IC50 (curve of compound): > 10000 nM |
| COc1cc2nccc(Oc3ccc(NC(=O)C4(C(=O)Nc5ccc(F)cc5)CC4)cc3)c2cc1OC + COc1cc2nc(C)nc(NC(C)c3cc(N)cc(C(F)(F)F)c3)c2cc1OC1CCOC1 | > 10000 | > 10000 | > 10000 | > 10000 | < 31.6 | 74.9 | 98.7 | 87.2 | 92 | 85.9 | 80.8 | 111 | 99.7 | 84.7 | 85.7 | 88.6 | 71.4 | 75.8 | 81.1 | 103 | viability, T/C [10]: 78.9%; viability, T/C [11]: 98.8%; viability, T/C [16]: 79.3%; viability, T/C [17]: 101%; viability, T/C [22]: 60.2%; viability, T/C [23]: 110%; viability, T/C [27]: 60.8%; viability, T/C [28]: 44.2%; viability, T/C [29]: 98.3%; viability, T/C [30]: 22.5%; viability, T/C [31]: 17.7%; viability, T/C [32]: 19.5%; viability, T/C [33]: 11.5%; viability, T/C [34]: 1.3%; viability, T/C [35]: 26.8% |
| CC(C)NCC(C(=O)N1CCN(c2ncnc3c2C(C)CC3O)CC1)c1ccc(Cl)cc1 (centres undefined) + COc1cc2nc(C)nc(NC(C)c3cc(N)cc(C(F)(F)F)c3)c2cc1OC1CCOC1 | 1780 | 1110 | 1240 | 700 | < 31.6 | 75.5 | 79.9 | 73.6 | 56.6 | 89.3 | 78.6 | 62.7 | 57.8 | 67.4 | 76.3 | 70.3 | 55.4 | 80.7 | 75.6 | 78.2 | viability, T/C [10]: 35.8%; viability, T/C [11]: 51.2%; viability, T/C [16]: 32.6%; viability, T/C [17]: 38.8%; viability, T/C [22]: 26.2%; viability, T/C [23]: 27.4%; viability, T/C [27]: 37.3%; viability, T/C [28]: 29.9%; viability, T/C [29]: 38.8%; viability, T/C [30]: 35.6%; viability, T/C [31]: 16.1%; viability, T/C [32]: 13.9%; viability, T/C [33]: 7.24%; viability, T/C [34]: 4.57%; viability, T/C [35]: 6.8% |
| CCN1CCN(Cc2ccc(Nc3ncc(F)c(-c4cc(F)c5nc(C)n(C(C)C)c5c4)n3)nc2)CC1 + CC1OCC2(CCN(c3cnc(Sc4ccnc(N)c4Cl)c(N)n3)CC2)C1N | > 1000 | > 1000 | > 1000 | > 1000 | > 1000 | 87 | 76.5 | 93.5 | 111 | 80.7 | 85.6 | 104 | 99.5 | 69.3 | 72.3 | 93.4 | 67 | 68.8 | 62.8 | 54.7 | viability, T/C (second compound 0.1 µM, first compound 0.00316 µM): 89.9%; viability, T/C (second compound 0.1 µM, first compound 0.01 µM): 99.2%; viability, T/C (second compound 0.316 µM, first compound 0.00316 µM): 81.3%; viability, T/C (second compound 0.316 µM, first compound 0.01 µM): 89.6%; viability, T/C (second compound 1 µM, first compound 0.00316 µM): 83.7%; viability, T/C (second compound 1 µM, first compound 0.01 µM): 86%; viability, T/C (second compound 3.16 µM, first compound 0.00316 µM): 74.5%; viability, T/C (second compound 3.16 µM, first compound 0.01 µM): 66.5%; viability, T/C [27]: 70%; viability, T/C (second compound 10 µM, first compound 0.00316 µM): 51.2%; viability, T/C (second compound 10 µM, first compound 0.01 µM): 71%; viability, T/C [30]: 58.7%; viability, T/C [31]: 53.6%; viability, T/C [32]: 64.6%; viability, T/C [33]: 63% |
